≈ marks a conversion by molar mass, not a printed value. Like-named read-outs stand apart in the source and are kept apart here. Marks after values point to notes of the source that are not given here.
What was measured:
[1] = tested on: K. pneumoniae Kp07, VIM-1 producer; assay: MIC by broth microdilution (agar dilution for fosfomycin); format: cell-based, Klebsiella pneumoniae; conditions: supplement table, strain KPc07; for MIC: Klebsiella pneumoniae; for SIR, classification according to EUCAST definitions: EUCAST 2016 breakpoints, fosfomycin by agar dilution
Excerpt: (§1) Four genetically unrelated clinical isolates of CP-Kp were studied: Kp07, a VIM-1 ST 1603 clone producer ([Miro et al., 2013]); Kp21, which co-produced VIM-1 and the acquired AmpC type beta-lactamase DHA-1 ST 11 clone ([Miro et al., 2013]); Kp28, co-producing OXA-48 ST11 clone and the extended spectrum beta-lactamase (ESBL) CTX-M-15 ([Oteo et al., 2015]); and Kp29, co-producing KPC-3 ST512 clone with the broad spectrum beta-lactamases TEM-1 and SHV-11 ([Lopez-Cerero et al., 2014]), thereinafter VIM-1, VIM-1/DHA-1, OXA-48 plus CTX-M-15, and KPC-3 producers, respectively. Identification of these isolates was confirmed by a Microflex LT-MALDI Biotyper mass spectrometer (Bruker Daltonics GmbH, Bremen, Germany). The presence of carbapenemase genes, and genes coding for other beta-lactamases was confirmed by PCR and sequencing as described previously. The absence of genetic relation among the isolates was confirmed by PFGE analysis of chromosomal restriction fragments obtained after XbaI cleavage following the criteria of [Tenover et al. (1995)]. […] The antibiotic susceptibility profiles are included in the Supplementary Information.
(§2) MICs of antibiotics were determined by broth microdilution as recommended by the [Clinical and Laboratory Standards Institute [CLSI] (2012)], using Mueller Hinton broth II (MHB) (Becton Dickinson & Co., Sparks, MD, United States) and agar dilution method for fosfomycin. MIC results were interpreted according to the [European Committee on Antimicrobial Susceptibility Testing [EUCAST] (2016)]^1 breakpoints. Studies were performed in triplicate.

[2] = tested on: K. pneumoniae Kp28, OXA-48 plus CTX-M-15 producer; assay: as above; format: cell-based, Klebsiella pneumoniae; conditions: supplement table, strain KPc28; for MIC: Klebsiella pneumoniae; for SIR, classification according to EUCAST definitions: EUCAST 2016 breakpoints, fosfomycin by agar dilution
Excerpt: as §1, §2

[3] = tested on: K. pneumoniae Kp21, VIM-1/DHA-1 producer; assay: as above; format: cell-based, Klebsiella pneumoniae; conditions: supplement table, strain KPc21; for MIC: Klebsiella pneumoniae; for SIR, classification according to EUCAST definitions: EUCAST 2016 breakpoints, fosfomycin by agar dilution
Excerpt: as §1, §2

[4] = tested on: K. pneumoniae Kp29, KPC-3 producer; assay: as above; format: cell-based, Klebsiella pneumoniae; conditions: for MIC: Klebsiella pneumoniae
Excerpt: as §1, §2

[5] = mouse, in vivo
Description: (§7) Mice were housed in an individually ventilated cage system under specific pathogen-free conditions, and water and food supplied ad libitum. […] All procedures were performed under sodium thiopental (B. Braun Medical S.A., Spain) anesthesia, and all efforts were made to minimize suffering.
(§8) Blood samples were immediately centrifuged (4500 rpm, 15 min at 4°C), and serum samples stored at -80°C until the analysis. Both serum free and total antibiotic concentrations were measured using HPLC-tandem mass spectrometry (LC-MS/MS) ([Waters et al., 2008]; [Gobin et al., 2010]). Free fractions of the drugs were calculated as described previously ([Waters et al., 2008]; [Gonzalez et al., 2013]; [Cheah et al., 2015]).

[6] = tested on: K. pneumoniae KPC-3 strain; format: in vivo, C57BL/6 mice infected with Klebsiella pneumoniae; conditions: CMS 20 mg/kg/8 h ip, rifampin 25 mg/kg/6 h ip, alone or combined
Description: (§3) A previously described murine peritoneal sepsis model was used ([Parra Millan et al., 2016]). Briefly, groups of un-anesthetized C57BL/6 mice were infected by ip injection of 0.5 mL of the Minimal Lethal Dose (MLD) of each strain, corresponding to (log10 cfu/mL): 8.97, 8.94 9.35, and 8.38 for VIM-1, VIM-1/DHA-1, OXA-48 plus CTX-M-15, and KPC-3 strains, respectively. Treatments were initiated 4 h post-inoculation. […] Afterward, mice were treated and monitored for 72 h. […] Samples were extracted and processed immediately after the death of mice; the survivor mice were sacrificed (sodium thiopental) at the 72 h. Aseptic thoracotomies were carried out, and blood samples were obtained for qualitative blood cultures; results were expressed as positive (≥1 cfu present in the plate) or negative. Spleens were aseptically extracted, weighed, and homogenized in sterile saline (Stomacher 80; Tekmar Co., Cincinnati, OH, United States) before quantitative cultures (log10 cfu/g) in Columbia agar with 5% sheep blood plates.
(§4) Mortality and bacteremia rates are expressed as percentages and bacterial tissue concentrations (log10 cfu/g) as means ±SD. The two-tailed Fisher’s test, analysis of variance (ANOVA), and the Dunnet and Tukey post hoc tests were used. A P < 0.05 was considered significant. The SPSS v22.0 statistical package was used (SPSS Inc).

[7] = tested on: K. pneumoniae VIM-1 strain; format: in vivo; conditions: CMS 20 mg/kg/8 h ip, rifampin 25 mg/kg/6 h ip, alone or combined; for Bacteremia (%): qualitative blood cultures at death or 72 h
Description: as §3, §4

[8] = tested on: K. pneumoniae VIM-1/DHA-1 strain; format: in vivo; conditions: CMS 20 mg/kg/8 h ip, rifampin 25 mg/kg/6 h ip, alone or combined; for Mice mortality (%) / Log10 cfu/g spleen (mean ±SD): 72 h, from 4 h post-inoculation; for Log10 cfu/g spleen (mean ±SD): ip MLD 8.94 log10 cfu/mL, at death or 72 h; for Bacteremia (%): qualitative blood cultures at death or 72 h
Description: as §3, §4

[9] = tested on: K. pneumoniae OXA-48 plus CTX-M-15 strain; assay: Murine peritoneal sepsis model; format: in vivo, C57BL/6 mice infected with Klebsiella pneumoniae; conditions: CMS 20 mg/kg/8 h ip, rifampin 25 mg/kg/6 h ip, alone or combined; for Mice mortality (%) / Log10 cfu/g spleen (mean ±SD): 72 h, from 4 h post-inoculation; for Log10 cfu/g spleen (mean ±SD): ip MLD 9.35 log10 cfu/mL, at death or 72 h; for Bacteremia (%): qualitative blood cultures at death or 72 h
Description: as §3, §4

[10] = tested on: K. pneumoniae OXA-48 plus CTX-M-15 strain; format: in vivo; conditions: for Bacteremia (%): blood cultures at death or 72 h; for Log10 cfu/g lung (mean ±SD): intratracheal 50 μl of 8.18 log10 cfu/mL, at death or 72 h
Description: A previously characterized murine pneumonia model was used ([Pachon-Ibanez et al., 2010]; [Docobo-Perez et al., 2012]; [Parra Millan et al., 2016]) with the OXA-48 plus CTX-M-15 strain, as OXA-48 is the most prevalent carbapenemase in Spain nowadays ([Palacios-Baena et al., 2016]). Anesthetized mice were infected intratracheally, using 50 μl of a final inoculum of 8.18 log10 cfu/mL. Therapies were initiated 4 h post-infection and treatment groups and dosages were the same as in the peritoneal sepsis model. Mice were treated and monitored over 72 h. After death or sacrifice of the mice at 72 h, blood and lungs samples were aseptically obtained and processed as detailed above.
as §4

[11] = tested on: K. pneumoniae VIM-1/DHA-1 producer; format: cell-based, Klebsiella pneumoniae; conditions: colistin 2 mg/L (EUCAST breakpoint), rifampin 2 mg/L, alone or combined; inoculum 1 × 10^6 cfu/mL, 37°C, samples 0-24 h; three experiments
Description: (§5) (2016)]. […] Tubes were incubated at 37°C, with shaking, and samples were taken at 0, 1, 3, 6, and 24 h, serially diluted and plated using a spiral platter (Eddy Jet, IUL S.A., Barcelona, Spain). Bacterial colonies were counted using an automatic counter (Flash & Go, IUL S.A., Barcelona, Spain) ([Pournaras et al., 2011]; [Souli et al., 2011]). Experiments were performed three times on separate occasions. […] Bactericidal activities of single antibiotics or combination were defined as a decrease ≥ 3 log10 cfu/mL from the starting inoculum ([Souli et al., 2009]). Studies were performed in triplicate.
(§6) The RIF concentration used for all strains was 2 mg/L. RIF, filled circles; CST, filled squares; combination of both antimicrobials, filled triangles.

[12] = tested on: K. pneumoniae VIM-1 producer; format: cell-based, Klebsiella pneumoniae; conditions: colistin 0.5 mg/L (MIC), rifampin 2 mg/L, alone or combined; inoculum 1 × 10^6 cfu/mL, 37°C, samples 0-24 h; three experiments
Description: as §5, §6

[13] = tested on: K. pneumoniae OXA-48 plus CTX-M-15 producer; format: cell-based, Klebsiella pneumoniae; conditions: colistin 0.5 mg/L (MIC), rifampin 2 mg/L, alone or combined; inoculum 1 × 10^6 cfu/mL, 37°C, samples 0-24 h; three experiments
Description: as §5, §6

[14] = Serum pharmacokinetics in healthy mice; conditions: single ip dose (CMS 20 mg/kg; rifampin 25 mg/kg), LC-MS/MS, PKSOLVER
Description: as §7, §8

[15] = broth microdilution, read-out: MIC
[16] = supplement table, strain KPc29, EUCAST 2016 breakpoints, fosfomycin by agar dilution
[17] = 72 h, from 4 h post-inoculation
[18] = CMS 20 mg/kg/8 h ip, rifampin 25 mg/kg/6 h ip, alone or combined
[19] = CMS 20 mg/kg/8 h ip, rifampin 25 mg/kg/6 h ip, alone or combined, from 4 h post-infection, 72 h
[20] = agar dilution, read-out: MIC (agar dilution method)

Compound | MIC [1, 15] [µg/mL] | SIR, classification according to EUCAST definitions [1] | MIC [2, 15] [µg/mL] | SIR, classification according to EUCAST definitions [2] | MIC [3, 15] [µg/mL] | SIR, classification according to EUCAST definitions [3] | MIC [4] [µg/mL] | SIR, classification according to EUCAST definitions [4, 16] | Mice mortality (%) [7, 17] [%] | Bacteremia (%) [7] [%] | Mice mortality (%) [8] [%] | Log10 cfu/g spleen (mean ±SD) [8] [log10 cfu/g] | Bacteremia (%) [8] [%] | Mice mortality (%) [9] [%] | Log10 cfu/g spleen (mean ±SD) [9] | Bacteremia (%) [9] [%] | Bacteremia (%) [10, 18] [%] | Log10 cfu/g lung (mean ±SD) [10, 19] | other results
NCC[C@H](O)C(=O)N[C@@H]1C[C@H](N)[C@@H](O[C@H]2O[C@H](CN)[C@@H](O)[C@H](O)[C@H]2O)[C@H](O)[C@H]1O[C@H]1O[C@H](CO)[C@@H](O)[C@H](N)[C@H]1O [Amikacin] | 1 (≈ 1.71 µM) | S | 1 (≈ 1.71 µM) | S | 4 (≈ 6.83 µM) | S | > 32 | – | – | – | – | – | – | – | – | – | – | – | SIR, classification according to EUCAST definitions [4]: R
C[C@@H](O)[C@H]1C(=O)N2C(C(=O)O)=C(S[C@@H]3CN[C@H](C(=O)N(C)C)C3)[C@H](C)[C@H]12 [Meropenem] | 2 (≈ 5.22 µM) | S | 2 (≈ 5.22 µM) | S | 16 (≈ 41.7 µM) | R | > 32 | R | – | – | – | – | – | – | – | – | – | – | –
colistimethate sodium [CMS] | – | – | – | – | – | – | – | – | 93.33 | 100 | 100 | 9.54 ± 0.34 | 100 | 100 | 9.52 ± 0.55 log10 cfu/g | 100 | 40 | 5.14 ± 3.78 log10 cfu/g | t1/2, free drug in serum [5]: 3.82 h; t1/2, total drug in serum [5]: 3.82 h; Mice mortality (%) [6, 17]: 75%; Log10 cfu/g spleen (mean ±SD) ([6]; ip MLD 8.38 log10 cfu/mL, from 4 h post-inoculation, 72 h, at death or 72 h, SD): 9.19 ± 1.85 log10 cfu/g; Bacteremia (%) ([6]; qualitative blood cultures at death or 72 h): 100%; Log10 cfu/g spleen (mean ±SD) ([7]; ip MLD 8.97 log10 cfu/mL, from 4 h post-inoculation, 72 h, at death or 72 h, SD): 8.60 ± 0.30 log10 cfu/g; Mice mortality (%) ([10]; 72 h, CMS 20 mg/kg/8 h ip, rifampin 25 mg/kg/6 h ip, alone or combined, from 4 h post-infection): 26.70%; Bacterial lung decrease ([10]; CMS monotherapy 20 mg/kg/8 h ip vs control group, not significant): 2.91 log10 cfu/g
CO[C@H]1/C=C/O[C@@]2(C)Oc3c(C)c(O)c4c(O)c(c(/C=N/N5CCN(C)CC5)c(O)c4c3C2=O)NC(=O)/C(C)=C\C=C\[C@H](C)[C@H](O)[C@@H](C)[C@@H](O)[C@@H](C)[C@H](OC(C)=O)[C@@H]1C [Rifampin, rifampin] | – | – | – | – | – | – | – | – | 100 | 100 | 100 | 9.68 ± 0.09 | 100 | 100 | 8.24 ± 0.76^c log10 cfu/g | 100 | 20 | 3.07 ± 1.63^a log10 cfu/g | Bactericidal activity in time-kill curves (decrease ≥ 3 log10 cfu/mL from the starting inoculum) [11]: did not show bactericidal activity; Bactericidal activity in time-kill curves (decrease ≥ 3 log10 cfu/mL from the starting inoculum) [12]: did not show bactericidal activity; Bactericidal activity in time-kill curves (decrease ≥ 3 log10 cfu/mL from the starting inoculum) [13]: did not show bactericidal activity; AUC0-24, free drug in serum (fAUC0-24) ([14]; free (fCST, fRIF)): 44.14 mg⋅h/L; Cmax, free drug in serum ([14]; free (fCST, fRIF), sets of three mice): 2900 ng/mL; AUC0-24, total drug in serum ([14]; total (tCST, tRIF)): 1103.58 mg⋅h/L; Cmax, total drug in serum ([14]; total (tCST, tRIF), sets of three mice): 72580 ng/mL
CNC(C)C1CCC(N)C(OC2C(N)CC(N)C(OC3OCC(C)(O)C(NC)C3O)C2O)O1 (stereo not drawn) [Gentamicin] | 4 (≈ 8.38 µM) | I | 0.5 (≈ 1.05 µM) | S | 2 (≈ 4.19 µM) | S | – | S | – | – | – | – | – | – | – | – | – | – | –
C[C@@H]1O[C@@H]1P(=O)(O)O [Fosfomycin] | – | S | – | S | – | S | – | R | – | – | – | – | – | – | – | – | – | – | MIC [1, 20]: 8 µg/mL (≈ 57.9 µM); MIC [2, 20]: 32 µg/mL (≈ 232 µM); MIC [3, 20]: 8 µg/mL (≈ 57.9 µM); MIC ([4]; supplement table, strain KPc29, agar dilution, read-out: MIC (agar dilution method)): 64 µg/mL (≈ 464 µM)

Source: article PMC5962653 (Frontiers in Microbiology, 2018)
